Measured values: patent publication US4902685A, “2-amino-3-cyano-bicyclic pyridines/pyrazines as inhibitors of interleukin 1” (American Home Products Corporation, priority 1988, dated 1990)

test system: IL 1-induced release of neutral protease from rabbit articular chondrocytes; assay: inhibition of IL 1-induced release of neutral protease from rabbit articular chondrocytes (azocoll assay); type: cell-based; conditions: Oryctolagus cuniculus, Chondrocyte; dose 1 μM; human IL 1; 24 h; relative to vehicle-treated chondrocytes; read-out: % Inhibition (I.S.D.)
Method: The ability of the compounds of the inventions to inhibit interleukin 1 is measured by the ability of the test compounds to inhibit the IL 1-induced release of neutral protease from rabbit articular chondrocytes.
This assay is carried out as follows:
Isolation of rabbit chondrocytes:
Male New Zealand White rabbits are anesthetized with 50 mg/kg of ketamine (i.m.) and killed by an intracardiac injection of 3 mls. of Nembutal. The knee joints of both legs are resected and the articular surfaces are exposed. Cartilate slices are obtained using a scalpel and are placed in a tissue culture dish (100 mm diameter) containing 10 mls of Hank's balanced salt solution (HBSS). The chrondrocytes within the cartilage slices are then liberated by a series of enzyme digestions. The slices are incubated for 10 min. at 37° C. in 0.05% hyaluronidase (Sigma H-3884), rinsed with HBSS and incubated with 0.2% trypsin (Sigma T-2395)for 10 min. at 37° C. The slices are rinsed again and incubated for 10 mins. at 37° C. with 1.2% collagenase (Sigma C-5138). The slices are then rinsed again with HBSS and resuspended in 10 ml of Ham's F-12 medium containing 10% fetal bovine calf serum (FCS) and 0.2% collagenase and incubated overnight at 37° C. in a 5% CO2 incubator. The next day, the medium containing the digested cartilage fragments and liberated chondrocytes is transferred to a 15 ml centrifuge tube and the cells are collected by centrifugation and washed twice and resuspended in Ham's F-12 medium. The cells are then placed into 24-well tissue culture plates (2×10^5 cells/well) and incubated at 37° C. until confluent (usually 4-6 days).
Stimulation of chondrocytes and drug treatment:
The confluent chondrocytes are rinsed twice with serum-free Ham's F-12 medium and 1 ml is added to each well. Fifty μl of purified human IL 1 (100 Units/ml; Genzyme Corporation, Boston, MA) is then added to stimulate these cells to secrete neutral protease. To measure drug effects, the cells are treated with test compound 10 min. prior to addition of IL 1. The standard screening dose is 10 μM. Twenty-four hours after IL 1 stimulation, supernatant fluids are collected and assayed for neutral protease activity.
The neutral protease activity of chrondrocyte supernatant fluids is determined by their ability to degrade an insoluble protease substrate, azocoll (Sigma). Supernatants are treated for 10 min. at room temperature with 350 μM p-aminophenylmercuric acetate to activate the latent enzyme. Three hundred μl of supernatant is then mixed with 500 μl of a 20 mg/ml suspension of azocoll and incubated at 37° C. for 18-24 hrs. with gentle rocking. The mixtures are centrifuged and the amount of substrate hydrolyzed is determined by measuring the absorbance of the supernatant at 520 nm.
Drug effects are calculated as the % change in enzyme activity (absorbance)by supernatants from drug-treated chrondrocytes relative to enzyme activity of supernatants from vehicle-treated chondrocytes as follows: [formula]

Structure (SMILES) | inhibition at 1 µM [%]
N#Cc1cc2c(nc1N)CCCC2 [Example 5, 2-Amino-5,6,7,8-tetrahydro-3-quinolinecarbonitrile] | 60

same assay, conditions: Oryctolagus cuniculus, Chondrocyte; dose 10 μM; human IL 1; 24 h; relative to vehicle-treated chondrocytes; read-out: % Inhibition (I.S.D.)

Structure (SMILES) | inhibition at 10 µM [%]
N#Cc1nc2c(nc1N)CCCC2 [Example 4, 2-Amino-5,6,7,8-tetrahydro-3-quinoxalinecarbonitrile] | 41
N#Cc1ccc(N2CCc3nc(N)c(C#N)cc3C2)cc1 [Example 1, 2-Amino-6-(4-cyanophenyl)-5,6,7,8-tetrahydro-1,6-naphthyridine-3-carbonitrile] | 18
N#Cc1ccc(N2CCc3nc(N)c(C#N)nc3C2)cc1 [Example 2, 2-Amino-6-(4-cyanophenyl)-5,6,7,8-tetrahydropyrido[3,4-b]pyrazine-3-carbonitrile] | 37
N#Cc1cc2c(nc1N)CCCC2 [Example 5, 2-Amino-5,6,7,8-tetrahydro-3-quinolinecarbonitrile] | 59
CS(=O)(=O)c1ccc(N2CCc3nc(N)c(C#N)cc3C2)cc1 [Example 3, 2-Amino-5,6,7,8-tetrahydro-6-[4-(methylsulfonyl)phenyl]-1,6-naphthyridine-3-carbonitrile] | 59
